Assay results as given in patent publication US20050131061A1, “Angiogenesis inhibitors” (Mercian Corporation, priority 2002, published 2005).

Assays:
[1] = tested on: human umbilical cord vein endothelial cells; experiment: Inhibition of proliferation of human umbilical cord vein endothelial cells (3H-thymidine incorporation); assay type: cell-based; details: bFGF 10 μg/l, 48 hours + 8 hours 3H-thymidine
Procedure: That is, 0.1 ml of human umbilical cord vein endothelial cells (Cell Systems Corporation) adjusted to 2×10^3 cells/well in MCDB131 medium (Chlorella Industry Co., Ltd.) containing 10 μg/l basic fibroblast cell growth factor and 10% fetal calf serum is seeded on a collagen-coated 96-well microplate (Sumitomo Bakelite Co., Ltd.) and at the same time a suitable amount of sample is added. The resultant is cultivated in an atmosphere containing 5% CO2 at 37° C. for 48 hours. Further, 1 μCi/well ^3H-tymidine is added and cultivation is performed for 8 hours. Then, the cells are collected using a cell harvester and the radioactivity incorporated into cells is measured using a scintillation counter.
When the sample contains an active substance for inhibiting the growth of angioendothelial cells, the incorporation of radioactivity into the cells is suppressed. Further, an effective concentration range of the sample is obtained from the change in radioactivity in the cells depending on the concentration of the sample.

DLD-1 (prostate cancer) = experiment: Toxicity to cultivated human cancer cells, MTT growth inhibition; assay type: cell-based; details: DLD-1 cells, 72 hours
Procedure: (§1) Note that the tests were performed as follows. Various kinds of human cancer cells (K562 (leukemia), H226 (lung cancer), DLD-1 (prostate cancer) and HT1080 (fibrosarcoma)) were suspended in RPMI1640 medium or DMEM medium containing 10% fetal calf serum and each adjusted to 5×10^3 cells/well, and 0.1 ml of this was seeded on a 96-well microplate. At the same time, a suitable amount of each of the substances F-1491 (substances F-1491A to F-1491H) was added and the resultant was cultivated at 37° C. for 72 hours in an atmosphere containing 5% CO2. Further, 10 μl of 0.5% MTT (3-[4,5-dimethylthiazol-2-yl]2,5-[…] tetrazolium bromide) was added and the resultant was cultivated for 4 hours. After the cultivation, 0.1 ml of 10% SDS-0.01N hydrochloric acid was added and absorbance at 570 nm was measured to determine 50% growth inhibition concentration.

HT1080 (fibrosarcoma) = experiment: as above; assay type: cell-based; details: 72 hours
Procedure: as §1

K562 (leukemia) = experiment: as above; assay type: cell-based; details: 72 hours
Procedure: as §1

H226 (lung cancer) = experiment: as above; assay type: cell-based; details: 72 hours
Procedure: as §1

[2] = Solubility (physicochemical properties)
Procedure: • (1) Form: white powder • (2) Molecular formula: C24H34O3 • (Measurement of C24H35O3 by high resolution FAB mass spectrometry Calculated m/z: 371.2586 (M+H)^+, Found m/z: 371.2580) • (3) Specific optical rotation: [α]D^26−194° (c 0.1, methanol) • (4) Melting point: 55 to 58° C. • (5) Infrared absorption spectrum: The results obtained by measurement by the KBr method are as shown in FIG. 1. […] The chemical shift, multiplicity and spin coupling constant of each signal are shown in Table 1. • (9) ^13C-NMR spectrum: Measurement was performed by dissolving the substance in heavy methanol and using tetramethylsilane as an internal standard. 2. Physicochemical Properties of the Substance F-1491B • (1) Form: white powder • (2) Molecular formula: C23H32O3 • (Measurement of C23H33O3 by high resolution FAB mass spectrometry Calculated m/z: 357.2430 (M+H)^+, Found m/z: 357.2463), • (3) Specific optical rotation: [α]D^26-222° (c 0.1, methanol) • (4) Melting point: 53 to 56° C. • (5) Infrared absorption spectrum: The results obtained by measurement by the KBr method are as shown in FIG. 2. […] The chemical shift, multiplicity, and spin coupling constant of each signal are shown in Table 1. • (9) ^13C-NMR spectrum: Measurement was performed by dissolving the substance in heavy methanol and using tetramethylsilane as an internal standard. 3. Physicochemical Properties of the Substance F-1491C • (1) Form: white powder • (2) Molecular formula: C24H35O3Cl • (Measurement of C24H35O3Cl by high resolution ESI mass spectrometry Calculated m/z: 429.2172 (M+Na)^+, Found m/z: 429.2204) • (3) Ultraviolet absorption spectrum (measured in methanol): […]

[3] = in methanol, chloroform and dimethyl sulfoxide

Row | Compound | 50% growth inhibition concentration [1] | 50% growth inhibition concentration (DLD-1 (prostate cancer)) | 50% growth inhibition concentration (HT1080 (fibrosarcoma)) | 50% growth inhibition concentration (K562 (leukemia)) | 50% growth inhibition concentration (H226 (lung cancer)) | Solubility [2, 3] | Solubility ([2]; in water)
1 | CC=C(C)C1C(C=CC=C(C)C(C)=O)C2CC(O)C(C)(O)CC2C2OC21C (centres unmarked) [F-1491H] | 5.6 mg/L | >100 mg/L | >100 mg/L | 61 mg/L | >100 mg/L |  | 
2 | CC=C(C)C1C(C=CC=C(C)C(C)=O)C2CCC(C)(O)CC2C2OC21C (centres unmarked) [F-1491F] | 9.3 mg/L | >100 mg/L | >100 mg/L | 72 mg/L | >100 mg/L |  | 
3 | CC=C(C)C1C(C=CC=C(C)C(C)=O)C2CC(OC)C(C)(O)CC2C2OC21C (centres unmarked) [F-1491G] | 7.7 mg/L | >100 mg/L | >100 mg/L | 95 mg/L | >100 mg/L |  | 
4 | CC=C(C)C1C(C=CC=C(C)C(C)=O)C2CC(Cl)C(C)(O)CC2C2OC21C (centres unmarked) [F-1491D] | 4.6 mg/L | >100 mg/L | >100 mg/L | 80 mg/L | >100 mg/L |  | 
5 | CC=C(C)C1C(C=CC=C(C)C(=O)CC)C2CC(Cl)C(C)(O)CC2C2OC21C (centres unmarked) [F-1491C] | 7.4 mg/L | >100 mg/L | >100 mg/L | 52 mg/L | >100 mg/L |  | 
6 | CC=C(C)C1C(C=CC=C(C)C(C)=O)C2CC3OC3(C)CC2C2OC21C (centres unmarked) [F-1491B] | 3.4 mg/L | >100 mg/L | >100 mg/L | 36 mg/L | >100 mg/L | Soluble | hardly soluble
7 | CC=C(C)C1C(C=CC=C(C)C(=O)CC)C2CCC(C)(O)CC2C2OC21C (centres unmarked) [F-1491E] | 3.2 mg/L | >100 mg/L | >100 mg/L | 68 mg/L | >100 mg/L |  | 
8 | CC=C(C)C1C(C=CC=C(C)C(=O)CC)C2CC3OC3(C)CC2C2OC21C (centres unmarked) [F-1491A] | 2.2 mg/L | >100 mg/L | >100 mg/L | 39 mg/L | >100 mg/L | Soluble | hardly soluble
